Assay results published in PubChem BioAssay AID1963863 (Molecular Pharmacology Branch, DTP, NCI, 2024).

Tested on: 931267-113-T-J1-PDC KRAS spheroid with HUVEC/MSC, viability
Test: Anticancer human tumor 931267-113-T-J1-PDC patient-derived colon adenocarcinoma cell line growth inhibition [KRAS2]
Conditions: for IC50: curve of first compound; for viability, T/C: stronger effect = lower value; active means viability on the fitted dose curve at most 10% of control; inactive means the rest
Description: Multicellular complex tumor spheroid response to RAS pathway inhibitors in combination with a targeted agents in patient-derived cell lines with oncogenic KRAS variants from multiple cancer types
A high-throughput screen of multi-cell type tumor spheroids was designed to identify active combinations of targeted small molecules and KRAS pathway inhibitors. Complex spheroids include a stromal component modeled by human endothelial cells (HUVEC) and fibroblasts modeled by human mesenchymal stem cells (MSCs). The concentration ranges selected for each drug and investigational agent were based upon clinically achievable concentrations if the clinical Cmax of the agent was known.
Compounds. The drugs and investigational agents: BI-3406 (NSC825286), BAY-293 (NSC824723), batoprotafib (TNO155; NSC825523), sotorasib (AMG 510; NSC818433), MRTX1257 (NSC819558), elimusertib (BAY 1895344; NSC800525), molibresib (GSK525762; NSC774829), temuterkib (LY3214996; NSC803410), venetoclax (NSC766270), alisertib (NSC759677), olaparib (NSC753686), talazoparib (NSC767125), erdafitinib (NSC781556), ipatasertib (NSC767898), cabozantinib (NSC761068), nintedanib (NSC756659), abemaciclib (NSC768073), docetaxel (NSC628503), trametinib (NSC758246), and sapanisertib (NSC764658) were obtained from the National Cancer Institute (NCI) Developmental Therapeutics Program Chemical Repository. The FDA-approved anticancer drug set is available from the Developmental Therapeutics Program. […] The stock solutions were prepared in dimethyl sulfoxide (DMSO, Sigma-Aldrich, St. Louis, MO, cat. D2650) at 800-fold the tested concentration and stored at -70 degrees C prior to their use. All drugs and investigational agents were tested over a range starting from a high concentration at or near the clinical Cmax and decreasing in half-log increments. If the clinical Cmax for an agent had not been determined, the highest concentration tested was 10 microM.
Cell Culture. All cells were maintained in an incubator at 37 degrees C and 5% CO2 with 95% humidity. The PDC lines were cultured according to standard operating procedures established by the NCI PDMR (https://pdmr.cancer.gov/sops/default.htm). Briefly, all PDCs were thawed and cultured in Matrigel-coated flasks prepared with a working solution of 1X Ham's F-12 nutrient mix, without supplementation (Invitrogen, Waltham, MA, cat. 11765054), 100 U/mL penicillin-streptomycin (Invitrogen, cat. 15140122), and 2.5% Matrigel (Corning Inc., Corning, NY, cat. 354248) for the first three passages. All PDCs were cultured in complete DMEM/F-12 media containing advanced DMEM/F-12 (Invitrogen, cat. 12634028), 4.9% defined fetal bovine serum, heat inactivated (HyClone Laboratories Inc., Logan, UT, cat. SH30070.03HI), 389 ng/mL hydrocortisone (Sigma-Aldrich, cat. H4001), 9.7 ng/mL human EGF recombinant protein (Invitrogen, cat. PHG0313), 23.4 microg/mL adenine (Sigma-Aldrich, cat. A2786), 97.3 U/mL penicillin-streptomycin (Invitrogen, cat. 15140122), 1.9 mM L-glutamine (Invitrogen, cat. 25030081), and 9.7 microM Y-27632 dihydrochloride (Tocris Bioscience, Bristol, United Kingdom, cat. 1254). The PDCs were cultured in complete DMEM/F12 media without 9.7 microM Y-27632 dihydrochloride for at least two passages prior to the screen. The established cell line HOP-62 was cultured in RPMI 1640 medium, HEPES (Invitrogen, cat. 22400105) with 10% defined fetal bovine serum (HyClone Laboratories Inc., cat. SH30070.03) and 2 mM L-glutamine (Invitrogen, cat. 25030081). The pooled donor HUVEC were cultured in endothelial cell growth medium 2 (PromoCell, Heidelberg, Germany, cat. C-22011) and the hMSC were cultured in mesenchymal stem cell growth medium 2 (PromoCell, cat. C-28009). For all experiments, HUVEC and hMSC were used at passages </=5, while the malignant cell lines were used at passages </=15. […]

[1] = second compound 0.1 µM, first compound 0.0316 µM
[2] = second compound 0.1 µM, first compound 0.1 µM
[3] = second compound 0.316 µM, first compound 0.0316 µM
[4] = second compound 0.316 µM, first compound 0.1 µM
[5] = second compound 1 µM, first compound 0.0316 µM
[6] = second compound 1 µM, first compound 0.1 µM
[7] = second compound 3.16 µM, first compound 0.0316 µM
[8] = second compound 3.16 µM, first compound 0.1 µM
[9] = second compound 10 µM, first compound 0.0316 µM
[10] = second compound 10 µM, first compound 0.1 µM
[11] = second compound 0.1 µM, first compound 0.000316 µM
[12] = second compound 0.1 µM, first compound 0.001 µM
[13] = second compound 0.1 µM, first compound 0.00316 µM
[14] = second compound 0.1 µM, first compound 0.01 µM
[15] = second compound 0.316 µM, first compound 0.000316 µM
[16] = second compound 0.316 µM, first compound 0.001 µM
[17] = second compound 0.316 µM, first compound 0.00316 µM
[18] = second compound 0.316 µM, first compound 0.01 µM
[19] = second compound 1 µM, first compound 0.000316 µM
[20] = second compound 1 µM, first compound 0.001 µM
[21] = second compound 1 µM, first compound 0.00316 µM
[22] = second compound 1 µM, first compound 0.01 µM
[23] = second compound 3.16 µM, first compound 0.000316 µM
[24] = second compound 3.16 µM, first compound 0.001 µM
[25] = second compound 3.16 µM, first compound 0.00316 µM
[26] = second compound 3.16 µM, first compound 0.01 µM
[27] = second compound 10 µM, first compound 0.000316 µM
[28] = second compound 10 µM, first compound 0.001 µM
[29] = second compound 10 µM, first compound 0.00316 µM
[30] = second compound 10 µM, first compound 0.01 µM
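Further: compound exposure lasted 7 days before the readout.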

CC(C)NCC(C(=O)N1CCN(c2ncnc3c2C(C)CC3O)CC1)c1ccc(Cl)cc1 (stereo not given) + CNCc1ccccc1-c1csc(C(C)Nc2nc(C)nc3cc(OC)c(OC)cc23)c1
5.43 µM: IC50 (second compound 0.316 µM)
< 0.0316 µM: IC50 (second compound 3.16 µM) | IC50 (second compound 10 µM)
active: viability, T/C [7] 0.1% | viability, T/C [8] 0.18% | viability, T/C (second compound 3.16 µM, first compound 0.316 µM) 0.09% | viability, T/C (second compound 3.16 µM, first compound 1 µM) 0.1% | viability, T/C (second compound 3.16 µM, first compound 3.16 µM) 0.14% | viability, T/C (second compound 3.16 µM, first compound 10 µM) 0.16% | viability, T/C [9] 0.17% | viability, T/C [10] 0.15% | viability, T/C (second compound 10 µM, first compound 0.316 µM) 0.15% | viability, T/C (second compound 10 µM, first compound 1 µM) 0.14% | viability, T/C (second compound 10 µM, first compound 3.16 µM) 0.25% | viability, T/C (second compound 10 µM, first compound 10 µM) 1.22%
0.0905 µM: IC50 (second compound 1 µM)
4.93 µM: IC50 (second compound 0.1 µM)
inactive: viability, T/C [1] 96.3% | viability, T/C [2] 90.4% | viability, T/C (second compound 0.1 µM, first compound 0.316 µM) 79% | viability, T/C (second compound 0.1 µM, first compound 1 µM) 68.4% | viability, T/C (second compound 0.1 µM, first compound 3.16 µM) 59.3% | viability, T/C (second compound 0.1 µM, first compound 10 µM) 38.6% | viability, T/C [3] 76% | viability, T/C [4] 70% | viability, T/C (second compound 0.316 µM, first compound 0.316 µM) 63.6% | viability, T/C (second compound 0.316 µM, first compound 1 µM) 54.6% | viability, T/C (second compound 0.316 µM, first compound 3.16 µM) 69.1% | viability, T/C (second compound 0.316 µM, first compound 10 µM) 31.1% | viability, T/C [5] 60.7% | viability, T/C [6] 47.9% | viability, T/C (second compound 1 µM, first compound 0.316 µM) 38.9% | viability, T/C (second compound 1 µM, first compound 1 µM) 33.4% | viability, T/C (second compound 1 µM, first compound 3.16 µM) 21.6% | viability, T/C (second compound 1 µM, first compound 10 µM) 19.2%

CC(C)n1nc(-c2ccc3oc(N)nc3c2)c2c(N)ncnc21 + CNCc1ccccc1-c1csc(C(C)Nc2nc(C)nc3cc(OC)c(OC)cc23)c1
0.00424 µM: IC50 (second compound 0.316 µM)
0.00101 µM: IC50 (second compound 1 µM)
active: viability, T/C [6] 5.59% | viability, T/C [23] 0.15% | viability, T/C [24] 0.12% | viability, T/C [25] 0.09% | viability, T/C [26] 0.08% | viability, T/C [7] 0.07% | viability, T/C [8] 0.21% | viability, T/C [27] 0.19% | viability, T/C [28] 0.81% | viability, T/C [29] 0.23% | viability, T/C [30] 0.29% | viability, T/C [9] 0.33% | viability, T/C [10] 0.4%
inactive: viability, T/C [11] 87.3% | viability, T/C [12] 87.7% | viability, T/C [13] 68.4% | viability, T/C [14] 37.2% | viability, T/C [1] 24.2% | viability, T/C [2] 27.2% | viability, T/C [15] 85.6% | viability, T/C [16] 67.8% | viability, T/C [17] 55.5% | viability, T/C [18] 38.7% | viability, T/C [3] 27.7% | viability, T/C [4] 19.8% | viability, T/C [19] 51.3% | viability, T/C [20] 57.2% | viability, T/C [21] 33.2% | viability, T/C [22] 24.1% | viability, T/C [5] 12.7%
< 0.000316 µM: IC50 (second compound 3.16 µM) | IC50 (second compound 10 µM)
0.00618 µM: IC50 (second compound 0.1 µM)

Cn1ncnc1[C@H]1c2n[nH]c(=O)c3cc(F)cc(c23)N[C@@H]1c1ccc(F)cc1 + C=CC(=O)N1CCN(c2nc(=O)n(-c3c(C)ccnc3C(C)C)c3nc(-c4c(O)cccc4F)c(F)cc23)C(C)C1
inactive: viability, T/C [11] 106% | viability, T/C [12] 98.3% | viability, T/C [13] 81.8% | viability, T/C [14] 92.3% | viability, T/C [1] 102% | viability, T/C [2] 93% | viability, T/C [15] 110% | viability, T/C [16] 110% | viability, T/C [17] 101% | viability, T/C [18] 105% | viability, T/C [3] 98.9% | viability, T/C [4] 72.7% | viability, T/C [19] 117% | viability, T/C [20] 107% | viability, T/C [21] 93.1% | viability, T/C [22] 100% | viability, T/C [5] 94.6% | viability, T/C [6] 80.8% | viability, T/C [23] 97.7% | viability, T/C [24] 106% | viability, T/C [25] 98.8% | viability, T/C [26] 85.1% | viability, T/C [7] 90.3% | viability, T/C [8] 89.8% | viability, T/C [27] 117% | viability, T/C [28] 103% | viability, T/C [29] 84.3% | viability, T/C [30] 99.8% | viability, T/C [9] 96% | viability, T/C [10] 102%
> 0.1 µM: IC50 (second compound 0.1 µM) | IC50 (second compound 0.316 µM) | IC50 (second compound 1 µM) | IC50 (second compound 3.16 µM) | IC50 (second compound 10 µM)

CN(C)C/C=C/C(=O)Nc1cc2c(Nc3ccc(F)c(Cl)c3)ncnc2cc1O[C@H]1CCOC1 + CNCc1ccccc1-c1csc(C(C)Nc2nc(C)nc3cc(OC)c(OC)cc23)c1
active: viability, T/C [27] 0.23% | viability, T/C [28] 0.22% | viability, T/C [29] 0.24% | viability, T/C [30] 0.45% | viability, T/C [9] 0.17% | viability, T/C [10] 0.22%
0.00202 µM: IC50 (second compound 3.16 µM)
< 0.000316 µM: IC50 (second compound 10 µM)
inactive: viability, T/C [11] 88% | viability, T/C [12] 80.3% | viability, T/C [13] 90.3% | viability, T/C [14] 97.7% | viability, T/C [1] 78% | viability, T/C [2] 88% | viability, T/C [15] 114% | viability, T/C [16] 104% | viability, T/C [17] 106% | viability, T/C [18] 76.7% | viability, T/C [3] 78.4% | viability, T/C [4] 79.8% | viability, T/C [19] 69.9% | viability, T/C [20] 12.7% | viability, T/C [21] 16.5% | viability, T/C [22] 21.8% | viability, T/C [5] 33.7% | viability, T/C [6] 1.43% | viability, T/C [23] 94.4% | viability, T/C [24] 108% | viability, T/C [25] 0.36% | viability, T/C [26] 0.29% | viability, T/C [7] 68.5% | viability, T/C [8] 0.32%
0.000489 µM: IC50 (second compound 1 µM)
> 0.1 µM: IC50 (second compound 0.1 µM) | IC50 (second compound 0.316 µM)
